According to patent US10370380B2, “Octahydropyrrolo[3,4-c]pyrrole derivatives and uses thereof” (Sunshine Lake Pharma Co., Ltd., priority 2015, dated 2019):
pIC50: −log10 of the molar value. Read-outs that look alike come from different tables or passages of the source.

Key:
humanized OX2 receptor = molecular target: T1, humanized OX2 receptor (Homo sapiens, UniProt O43614); test: Antagonistic effect on humanized OX2 receptor, calcium flux by fluorescence detection in HEK-293 cells; assay type: cell-based
T1 construct: expressed in transfected cells; host or cells: HEK-293 cells
T1 sequence (O43614 1-444): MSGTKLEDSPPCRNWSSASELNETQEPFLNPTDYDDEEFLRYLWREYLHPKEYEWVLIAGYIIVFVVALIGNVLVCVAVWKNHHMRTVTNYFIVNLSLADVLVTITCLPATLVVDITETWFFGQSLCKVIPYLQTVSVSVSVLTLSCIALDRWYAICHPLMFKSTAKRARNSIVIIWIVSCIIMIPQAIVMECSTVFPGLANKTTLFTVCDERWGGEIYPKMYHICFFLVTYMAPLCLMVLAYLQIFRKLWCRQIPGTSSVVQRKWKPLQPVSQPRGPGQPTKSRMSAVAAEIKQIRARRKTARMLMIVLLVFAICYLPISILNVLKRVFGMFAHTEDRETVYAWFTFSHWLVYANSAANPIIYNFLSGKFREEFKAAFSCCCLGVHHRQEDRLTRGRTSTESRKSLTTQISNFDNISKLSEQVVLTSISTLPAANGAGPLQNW
Description: (§1) The capability of the compounds provided herein to antagonize humanized OX2 receptors expressed in HEK-293 cells was evaluated by the influence of the compounds disclosed herein on calcium flux in cells induced by agonist detected by a method of fluorescence detection. The cells were suspended in DMEM culture medium (invitrogen), and then added to a microplate with an average density of 3×10^4 cells/well. The Hank's balanced salt solution (pH 7.4) containing fluorescent probes (Fluo4 NW, Invitrogen), probenecid (invitrogen), 20 mM […] (invitrogen) was added to the above microplate, and then incubated together with the cells at 37° C. for 60 min, further incubated at 22° C. for 15 min. The microplate was placed in a microplate reader (CellLux, PerkinElmer), and to which was added the test compound or reference antagonist or Hank's balanced salt solution, 5 min later, 10 nM of orexin B or Hank's balanced salt solution (as a blank contrast) was added. […] The experimental results were expressed as an inhibition percentage relative to a control group (the group with 10 nM of orexin B).
The standard reference antagonist is JNJ10397049, and IC50 values were calculated by the dose-effect curve obtained from a series of concentrations of the experimental test.

[1] = Pharmacokinetic evaluation after intravenous or gavage administration to rats; assay type: in vivo, SD rats; settings: SD, rat, in vivo
Description: (§2) The compounds disclosed herein were administered in form of a saline solution containing 5% DMSO, 5% Kolliphor HS 15, 2% (2% HCl) and 88% Saline, or a solution containing 10% DMSO, 10% Kolliphor HS 15 and 80% physiological saline to the subject animals. For intravenous administration, the animals were administered with a dose of 1 mg/kg or 2 mg/kg, and vein blood samples (0.3 mL) were collected at the time points of 0.083, 0.25, 0.5, 1.0, 2.0, 4.0, 6.0, 8.0 and 24 h after drug administration; plasma samples were collected by centrifugation of the vein blood samples at 3000 rpm or 4000 rpm for 10 minutes, and stored at −20° C. or −70° C. For gavage administration, the animals were administered with a dose of 2.5 mg/kg or 5 mg/kg, and vein blood samples (0.3 mL) were collected at the time points of 0.25, 0.5, 1.0, 2.0, 4.0, 6.0, 8.0 and 24 h after drug administration; plasma samples were collected by centrifugation at 3000 rpm or 4000 rpm for 10 minutes, and stored at −20° C. or −70° C. The positive control is suvorexant.
(§3) The above plasma samples were analyzed by the LC-MS/MS system.

[2] = Pharmacokinetic evaluation after intravenous or gavage administration to dogs; assay type: in vivo, Beagle dogs; settings: beagle, dog, in vivo
Description: as §2, §3

humanized OX1 receptor = molecular target: T2, humanized OX1 receptor (Homo sapiens, UniProt O43613); test: Antagonistic effect on humanized OX1 receptor, calcium flux by fluorescence detection in CHO cells; assay type: cell-based; settings: CHO cells, calcium flux induced by 3 nM orexin A; read-out: OX1 IC50
T2 construct: expressed in transfected cells; host or cells: CHO (Chinese hamster ovary) cells
T2 sequence (O43613 1-425): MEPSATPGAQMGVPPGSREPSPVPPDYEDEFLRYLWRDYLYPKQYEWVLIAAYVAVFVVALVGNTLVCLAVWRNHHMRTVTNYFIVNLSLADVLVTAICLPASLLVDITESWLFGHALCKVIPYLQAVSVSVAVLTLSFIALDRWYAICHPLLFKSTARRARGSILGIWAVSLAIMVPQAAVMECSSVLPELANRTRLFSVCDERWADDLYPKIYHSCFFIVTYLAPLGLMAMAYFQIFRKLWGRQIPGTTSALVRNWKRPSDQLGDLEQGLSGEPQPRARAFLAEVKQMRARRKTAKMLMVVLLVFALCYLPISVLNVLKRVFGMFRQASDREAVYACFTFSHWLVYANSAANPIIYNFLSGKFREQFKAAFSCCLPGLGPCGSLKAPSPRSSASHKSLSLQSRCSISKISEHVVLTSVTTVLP
Description: as §1, with “OX1 receptor” for “OX2 receptors”, “Chinese hamster ovary (CHO)” for “HEK-293”, “2×10^4” for “3×10^4”, “3” for “10”, “A” for “B”, “A).” for “B).”
The standard reference antagonist is SB334867, and IC50 values were calculated by the dose-effect curve obtained from a series of concentrations of the experimental test.

[3] = HEK-293 cells, calcium flux induced by 10 nM orexin B, read-out: OX2 IC50

| Structure (SMILES) | pIC50 (humanized OX2 receptor; [3]) | AUC(0-inf) ([1]; iv, 1 mg/kg) [ng·h/mL] | AUC(0-t) ([1]; iv, 1 mg/kg) [ng·h/mL] | Cmax ([1]; iv, 1 mg/kg) [ng/mL] | MRT inf ([1]; iv, 1 mg/kg) [min] | Vd ([1]; iv, 1 mg/kg) [L/kg] | clearance ([1]; iv, 1 mg/kg) [mL/min/kg] | half-life ([1]; iv, 1 mg/kg) [min] | AUC(0-inf) ([1]; po, 2.5 mg/kg) [ng·h/mL] | AUC(0-t) ([1]; po, 2.5 mg/kg) [ng·h/mL] | Cmax ([1]; po, 2.5 mg/kg) [ng/mL] | F ([1]; po, 2.5 mg/kg) [%] | MRT inf ([1]; po, 2.5 mg/kg) [min] | half-life ([1]; po, 2.5 mg/kg) [min] | pIC50 (humanized OX1 receptor) | further results |
| --- | --- | --- | --- | --- | --- | --- | --- | --- | --- | --- | --- | --- | --- | --- | --- | --- |
| O=C(c1ccccc1-n1nccn1)N1CC2CN(c3nc4cc(Cl)ccc4o3)CC2C1 (centres unmarked) [Example 2, (2-(2H-1,2,3-triazol-2-yl)phenyl)(5-(5-chlorobenzo[d]oxazol-2-yl)hexahydropyrrolo[3,4-c]pyrrol-2(1H)-yl)methanone] | 6.66 | 551 | 549 | 639 | 47.2 | 1.42 | 30.4 | 36.1 | 790 | 783 | 485 | 57.3 | 88.8 | 61.8 | – | – |
| O=C(c1c(F)cccc1-n1nccn1)N1CC2CN(c3nc4cc(Cl)ccc4o3)CC2C1 (centres unmarked) [Example 3, (5-(5-chlorobenzo[d]oxazol-2-yl)hexahydropyrrolo[3,4-c]pyrrol-2(1H)-yl)(2-fluoro-6-(2H-1,2,3-triazol-2-yl)phenyl)methanone] | 6.83 | 626 | 624 | 760 | 45.5 | 1.21 | 26.7 | 34.6 | 907 | 904 | 567 | 57.9 | 82.2 | 52.4 | – | AUC(0-inf) ([2]; iv, 1 mg/kg): 8330 ng·h/mL; AUC(0-t) ([2]; iv, 1 mg/kg): 8320 ng·h/mL; Cmax ([2]; iv, 1 mg/kg): 3830 ng/mL; MRT inf ([2]; iv, 1 mg/kg): 175 min; Vd ([2]; iv, 1 mg/kg): 1.75 L/kg; half-life ([2]; iv, 1 mg/kg): 144 min; AUC(0-t) ([2]; po, 5 mg/kg): 35000 ng·h/mL; Cmax ([2]; po, 5 mg/kg): 5640 ng/mL; F ([2]; po, 5 mg/kg): 84.0%; MRT inf ([2]; po, 5 mg/kg): 275 min; half-life ([2]; po, 5 mg/kg): 176 min |
| Cc1ccc(-n2nccn2)c(C(=O)N2CC3CN(c4nc5cc(F)ccc5o4)CC3C2)c1 (centres unmarked) [Example 4, (5-(5-fluorobenzo[d]oxazol-2-yl)hexahydropyrrolo[3,4-c]pyrrol-2(1H)-yl)(5-methyl-2-(2H-1,2,3-triazol-2-yl)phenyl)methanone] | – | – | – | – | – | – | – | – | – | – | – | – | – | – | 6.21 | pIC50 (humanized OX2 receptor): 6.47 |
| O=C(c1ccccc1-n1nccn1)N1CC2CN(c3nc4cc(F)ccc4o3)CC2C1 (centres unmarked) [Example 5, (2-(2H-1,2,3-triazol-2-yl)phenyl)(5-(5-fluorobenzo[d]oxazol-2-yl)hexahydropyrrolo[3,4-c]pyrrol-2(1H)-yl)methanone] | 6.63 | – | – | – | – | – | – | – | – | – | – | – | – | – | 6.19 | – |
| O=C(c1c(F)cccc1-n1nccn1)N1CC2CN(c3nc4cc(F)ccc4o3)CC2C1 (centres unmarked) [Example 6, (2-fluoro-6-(2H-1,2,3-triazol-2-yl)phenyl)(5-(5-fluorobenzo[d]oxazol-2-yl)hexahydropyrrolo[3,4-c]pyrrol-2(1H)-yl)methanone] | 6.70 | – | – | – | – | – | – | – | – | – | – | – | – | – | 6.23 | – |
| Cc1ccc(-n2nccn2)c(C(=O)N2CC3CN(c4ncc5cc(F)ccc5n4)CC3C2)c1 (centres unmarked) [Example 12, (5-(6-fluoroquinazolin-2-yl)hexahydropyrrolo[3,4-c]pyrrol-2(1H)-yl)(5-methyl-2-(2H-1,2,3-triazol-2-yl)phenyl)methanone] | 6.85 | 460 | 460 | 749 | 25.6 | 0.987 | 40.1 | 24.3 | 454 | 452 | 340 | 39.3 | 76.8 | 50.2 | 6.46 | AUC(0-inf) ([2]; iv, 1 mg/kg): 1140 ng·h/mL; AUC(0-t) ([2]; iv, 1 mg/kg): 1130 ng·h/mL; Cmax ([2]; iv, 1 mg/kg): 1390 ng/mL; MRT inf ([2]; iv, 1 mg/kg): 58.2 min; Vd ([2]; iv, 1 mg/kg): 0.85 L/kg; clearance ([2]; iv, 1 mg/kg): 14.7 mL/min/kg; half-life ([2]; iv, 1 mg/kg): 42 min; AUC(0-inf) ([2]; po, 5 mg/kg): 7880 ng·h/mL; AUC(0-t) ([2]; po, 5 mg/kg): 7310 ng·h/mL; Cmax ([2]; po, 5 mg/kg): 2310 ng/mL; F ([2]; po, 5 mg/kg): 129.4%; MRT inf ([2]; po, 5 mg/kg): 187 min; half-life ([2]; po, 5 mg/kg): 119 min |
| O=C(c1ccccc1-n1nccn1)N1CC2CN(c3ncc4cc(F)ccc4n3)CC2C1 (centres unmarked) [Example 13, (2-(2H-1,2,3-triazol-2-yl)phenyl)(5-(6-fluoroquinazolin-2-yl)hexahydropyrrolo [3,4-c]pyrrol-2(1H)-yl)methanone] | – | 865 | 864 | 1270 | 32.9 | 0.648 | 20.1 | 30.1 | 752 | 750 | 537 | 34.7 | 70.2 | 41 | – | – |
